{"source": "patent US20140315809A1", "about": "“CALCIMIMETICS AND METHODS FOR THEIR USE” (KAI PHARMACEUTICALS INC., priority 2011, published 2014)", "format_in_all_cases": "in vivo, rat", "key": {"[1]": {"test_system": "adenine-induced model of chronic renal failure in rats", "test": "Serum phosphorus, calcium and calcium-phosphorus product in adenine-induced chronic renal failure", "conditions": "uremic rats", "procedure": "(§1) The therapeutic efficacy Ac-c(C)rrarar-NH2, (SEQ ID NO:28) was assessed using an adenine-induced model of chronic renal failure in rats. The rats were obtained from Charles River Laboratories (Wilmington, Mass.). The rats were fed a low protein (2.5%), high phosphorus (0.92%) diet containing 0.75% adenine (Teklad Custom Diet). Animals were randomly assigned to receive daily subcutaneous doses of vehicle (10 mM succinic acid, 0.85% NaCl, 0.9% benzyl alcohol, pH 4.5) or Ac-c(C)rrarar-NH2 (SEQ ID NO:28) at 0.3 or 1 mg/kg (SC) for 4 weeks. A control group was fed the identical high phosphorus diet and tissues without adenine. Treatment was initiated at the start of diet. All experimental procedures with animals were performed according to IACUC guidelines. Statistical analysis was performed using one-way ANOVA with Bonferroni post test. All p-values are nominal.\nPhosphorus and calcium were determined using a Cobas c-501 analyzer."}, "[2]": {"test_system": "adenine-induced model of chronic renal failure in rats", "test": "Vascular calcification (Alizarin Red, von Kossa) in adenine-induced chronic renal failure", "conditions": "uremic rats", "procedure": "as §1\nThe effects of Ac-c(C)rrarar-NH2 (SEQ ID NO:28) treatment of vascular calcification was also determined using adenine-induced rat model of chronic renal failure. After treatment with Ac-c(C)rrarar-NH2 (SEQ ID NO:28) at doses of 0.3 or 1 mg/kg for 4 weeks, the uremic rats were sacrificed and aortic tissue was analyzed. Aortic tissue was processed and stained by Alizarin Red and von Kossa methods to visualize vascular mineralization. Using a scoring system from 0-5, identical sections of von Kossa-stained aorta from all animals were scored in a blinded fashion."}, "[3]": {"test_system": "adenine-induced model of chronic renal failure in rats", "test": "PTH suppression in adenine-induced chronic renal failure", "conditions": "uremic rats, 0.3 or 1 mg/kg SC daily for 2 and 4 weeks", "procedure": "as §1\nPlasma PTH was measured using the Immunotopics BioActive Intact ELISA (Immutopics, San Clemente, Calif.). Prior to dosing with Ac-c(C)rrarar-NH2 (SEQ ID NO:28), all treatment groups had similar plasma PTH levels. The no-adenine-control animals maintained consistent plasma PTH levels over the 4 week study."}, "[4]": {"test_system": "adenine-induced model of chronic renal failure in rats", "test": "Parathyroid gland weight in adenine-induced chronic renal failure", "conditions": "0.3 or 1 mg/kg SC daily for 4 weeks", "procedure": "as §1\nThe effects of Ac-c(C)rrarar-NH2 (SEQ ID NO:28) treatment on parathyroid gland enlargement was also determined using the adenine-induced rat model of chronic renal failure. After treatment with Ac-c(C)rrarar-NH2 (SEQ ID NO:28) at doses of 0.3 or 1 mg/kg for 4 weeks, the uremic rats were sacrificed and the parathyroid glands were removed, trimmed and weighed."}, "[5]": {"test_system": "adenine-induced model of chronic renal failure in rats", "test": "Creatinine suppression in adenine-induced chronic renal failure", "conditions": "4 weeks", "procedure": "as §1\nSerum creatinine was measured using QuantiChrom™ kit (BioAssay Systems, Hayward, Calif.). Serum creatinine levels from vehicle-treated uremic animals were approximately 8-10 fold higher compared to the control group of non-uremic animals at the end of the 4 weeks. […] Uremic animals treated with Ac-c(C)rrarar-NH2 (SEQ ID NO:28) at a dose of 1 mg/kg Ac-c(C)rrarar-NH2 (SEQ ID NO:28) had approximately 50% lower serum creatinine levels compared with vehicle-treated controls."}, "[6]": {"conditions": "0.3 and 1 mg/kg SC daily for 4 weeks"}, "[7]": {"conditions": "0.3 or 1 mg/kg SC daily for 4 weeks"}}, "data": [{"substance": "Ac-c(C)rrarar-NH2", "values": [{"measurement": "reduction in serum calcium-phosphorus product", "setting": "[1]; 0.3 mg/kg SC daily for 4 weeks", "result": "~20", "unit": "%"}, {"measurement": "reduction in serum calcium-phosphorus product", "setting": "[1]; 1 mg/kg SC daily for 4 weeks", "result": "~40", "unit": "%"}, {"measurement": "serum calcium compared to vehicle-treated rats", "setting": "[1]; [6]", "result": "significant dose-dependent reduction"}, {"measurement": "serum phosphorus levels", "setting": "[1]; [6]", "result": "significant reduction"}, {"measurement": "animals showing aortic mineralization", "setting": "[2]; 0.3 mg/kg treatment group, 4 weeks", "result": "Only one animal"}, {"measurement": "aortic mineralization, Alizarin Red and Von Kossa staining", "setting": "[2]; [7]", "result": "little or no mineralization"}, {"measurement": "von Kossa staining of aorta", "setting": "[2]; [7]", "result": "no appreciable von Kossa staining"}, {"measurement": "plasma PTH versus vehicle-treated animals", "setting": "[3]", "result": "significantly lower"}, {"measurement": "parathyroid gland weight compared to non-uremic animals", "setting": "[4]", "result": "not significantly different in weight"}, {"measurement": "parathyroid gland weight compared to vehicle group", "setting": "[4]; uremic rats", "result": "significantly reduced in weight"}, {"measurement": "serum creatinine levels versus vehicle-treated uremic rats", "setting": "[5]; 0.3 and 1 mg/kg SC daily", "result": "significantly lower"}, {"measurement": "lower serum creatinine levels compared with vehicle-treated controls", "setting": "[5]; uremic rats, 1 mg/kg SC daily", "result": "approximately 50%"}]}]}
